In US11684603B2, “Neuraminidase inhibition to improve glycocalyx volume and function to ameliorate cardiovascular diseases in pathologies associated with glycocalyx damage” (priority 2017, dated 2023):

What was measured:
isolated aortas = test: Atomic force microscopy of aortic endothelial stiffness in treated db/db mice; format: in vivo; settings: 5 mg twice a day via inhalation for 5 days, vs vehicle
Excerpt: (§1) Data represent mean+/−SEM, *P<0.05, determined by two-tailed Student t test.

femoral arteries [1] = test: Vasodilation of pre-constricted femoral arteries from treated db/db mice to insulin, acetylcholine or sodium nitroprusside; format: in vivo; settings: 5 mg twice a day via inhalation for 5 days, vs vehicle cohort
Excerpt: In a separate set of experiments, vessels were pre-constricted and exposed to increasing concentrations of insulin (FIG. 8C) or endothelium-dependent vasodilator, acetylcholine (FIG. 8D). […] Data represent mean+/−SEM, *P<0.05, determined by two-tailed Student t test.
as §1

human endothelial cells = test: Wheat Germ Agglutinin (WGA) staining of the glycocalyx of cultured human endothelial cells; format: cell-based; settings: neuraminidase plus Zanamivir for 1 hour
femoral arteries [2] = test: Flow mediated dilation in isolated femoral arteries from treated db/db mice; format: in vivo; settings: 5 mg twice a day via inhalation for 5 days, vs placebo control; increasing shear stress
Excerpt: Vessels were pre-constricted with phenylephrine and exposed to increasing shear stress (dynes/cm^2) to assess flow mediated dilation. […] Data represent mean+/−SEM, *P<0.05, determined by two-tailed Student t test.

glycocalyx = settings: patients with familial hypercholesterolemia, short term treatment; cited from earlier work

SMILES	aortic endothelial stiffness (isolated aortas)	endothelial dependent vasodilatory response to acetylcholine (femoral arteries [1]; increasing concentrations of acetylcholine)	endothelial dependent vasodilatory response to insulin (femoral arteries [1]; increasing concentrations of insulin)	effect on the neuraminidase-induced reduction in WGA staining (human endothelial cells)	flow mediated dilation (femoral arteries [2])	glycocalyx volume (glycocalyx)	plasma hyaluronidase activity (glycocalyx)
CC(=O)NC1C(NC(=N)N)C=C(C(=O)O)OC1C(O)C(O)CO (stereo not shown) [Zanamivir, 5-acetamido-4-guanidino-6-(1,2,3-trihydroxypropyl)-5,6-dihydro-4H-pyran-2-carboxylic acid]	significant reduction	greater	greater	attenuated	significantly improved	–	–
CC(C)c1nc(N(C)S(C)(=O)=O)nc(-c2ccc(F)cc2)c1/C=C/[C@@H](O)C[C@@H](O)CC(=O)O [Rosuvastatin]	–	–	–	–	–	partially restored glycocalyx volume	increase in plasma hyaluronidase activity
